Measured values as given in patent publication US10538555B2, “Macrocyclic inhibitors of the PD-1/PD-L1 and CD80(B7-1)/PD-L1 protein/protein interactions” (BRISTOL-MYERS SQUIBB COMPANY, priority 2014, dated 2020).
Where a SMILES comes first, the peptide text is derived from it. Bridges are numbered along the chain shown (N, C = ends). [ ]: non-standard residue; d: D form. ξ: configuration not given here. Trp(1-CH2COOH) = N[C@@H](Cc1cn(CC(=O)O)c2ccccc12)C(=O)O; Hyp = O=C(O)[C@@H]1C[C@@H](O)CN1; NMeNle = CCCC[C@H](NC)C(=O)O; NMeA = CN[C@@H](C)C(=O)O; Orn = NCCC[C@H](N)C(=O)O; Dab = NCC[C@H](N)C(=O)O; Dap = NC[C@H](N)C(=O)O; ξP = O=C(O)C1CCCN1

Each compound was assayed against T1, Human PD-L1/PD-1 (Homo sapiens, UniProt Q9NZQ7) (assay: HTRF Human PD-L1/PD-1 binding assay (PD-1-Ig/PD-L1-His)). Conditions: PD-L1-His 10 nM, PD-1-Ig 20 nM; class symbol; read-out: HTRF Human PD-L1/PD-1 Binding Assay IC50 Range.
T1 construct: TVMV protease cleavage site (C); made in house; host or cells: HEK293T cells
T1 sequence (Q9NZQ7 with tags, fused parts or gaps): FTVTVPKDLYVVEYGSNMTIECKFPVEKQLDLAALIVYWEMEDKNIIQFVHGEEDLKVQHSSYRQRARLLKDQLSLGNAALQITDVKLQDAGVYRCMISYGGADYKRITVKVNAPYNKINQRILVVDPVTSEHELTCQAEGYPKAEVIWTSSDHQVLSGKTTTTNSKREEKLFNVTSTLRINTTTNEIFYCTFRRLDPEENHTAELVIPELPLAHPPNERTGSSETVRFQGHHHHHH
Summary of the method: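 Step 1: compound with PD-L1-His (10 nM final), 15 min. Step 2: PD-1-Ig (20 nM final), 15 min. Step 3: Eu-cryptate anti-Ig (1 nM) plus APC anti-His (20 nM), 30 min equilibration. Signal taken as 665 nm/620 nm ratio.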
For CCCC[C@H]1C(=O)N(C)[C@@H](CCCC)C(=O)N[C@@H](CCC(=O)O)C(=O)N[C@H](C(=O)NCC(N)=O)CSCC(=O)N[C@@H](Cc2ccc(O)cc2)C(=O)N(C)[C@@H](C)C(=O)N[C@@H](CC(N)=O)C(=O)N2CCC[C@H]2C(=O)N[C@@H](Cc2cnc[nH]2)C(=O)N[C@@H](CCCN)C(=O)N2C[C@H](O)C[C@H]2C(=O)N[C@@H](Cc2c[nH]c3ccccc23)C(=O)N[C@@H](CCCCN)C(=O)N[C@@H](Cc2cn(CC(=O)O)c3ccccc23)C(=O)N1C [Example 6267] ({CH2CO}-Y[NMeA]NPH[Orn][Hyp]WK[Trp(1-CH2COOH)][NMeNle][NMeNle]ECG-NH2; thioether N-14), the IC50 was 1 to 9.9 nM.
CCCC[C@H]1C(=O)N(C)[C@@H](CCCC)C(=O)N[C@@H](CCCN)C(=O)N[C@H](C(=O)NCC(N)=O)CSCC(=O)N[C@@H](Cc2ccc(O)cc2)C(=O)N(C)[C@@H](C)C(=O)N[C@@H](CC(=O)O)C(=O)N2CCC[C@H]2C(=O)N[C@@H](Cc2cnc[nH]2)C(=O)N[C@@H](CCC(=O)O)C(=O)N2C[C@H](O)C[C@H]2C(=O)N[C@@H](Cc2c[nH]c3ccccc23)C(=O)N[C@@H](CO)C(=O)N[C@@H](Cc2cn(CC(=O)O)c3ccccc23)C(=O)N1C [Example 6269] ({CH2CO}-Y[NMeA]DPHE[Hyp]WS[Trp(1-CH2COOH)][NMeNle][NMeNle][Orn]CG-NH2; thioether N-14) was tested, and the IC50 was 10 to 99.9 nM.
In the case of CCCC[C@H]1C(=O)N(C)[C@@H](CCCC)C(=O)N[C@@H](CC(C)C)C(=O)N[C@H](C(=O)NCC(N)=O)CSCC(=O)N[C@@H](Cc2ccc(O)cc2)C(=O)N(C)[C@@H](C)C(=O)N[C@@H](CC(N)=O)C(=O)N2CCC[C@H]2C(=O)N[C@@H](CN)C(=O)N[C@@H](CC(C)C)C(=O)N2CCC[C@H]2C(=O)N[C@@H](Cc2c[nH]c3ccccc23)C(=O)N[C@@H](CCN)C(=O)N[C@@H](Cc2ccc(O)cc2)C(=O)N1C [Example 6272] ({CH2CO}-Y[NMeA]NP[Dap]LPW[Dab]Y[NMeNle][NMeNle]LCG-NH2; thioether N-14), the IC50 is reported as 1 to 9.9 nM.
With CCCC[C@H]1C(=O)N(C)[C@@H](CCCC)C(=O)N[C@@H](CO)C(=O)N[C@H](C(=O)NCC(N)=O)CSCC(=O)N[C@@H](Cc2ccc(O)cc2)C(=O)N(C)[C@@H](C)C(=O)N[C@@H](CC(=O)O)C(=O)N2CCC[C@H]2C(=O)N[C@@H](CO)C(=O)N[C@@H](CC(C)C)C(=O)N2C[C@H](O)C[C@H]2C(=O)N[C@@H](Cc2c[nH]c3ccccc23)C(=O)N[C@@H](CO)C(=O)N[C@@H](Cc2cn(CC(=O)O)c3ccccc23)C(=O)N1C [Example 6274] ({CH2CO}-Y[NMeA]DPSL[Hyp]WS[Trp(1-CH2COOH)][NMeNle][NMeNle]SCG-NH2; thioether N-14) the IC50 was 1 to 9.9 nM.
CCCC[C@H]1C(=O)N(C)[C@@H](CCCC)C(=O)N[C@@H](CC(C)C)C(=O)N[C@H](C(=O)NCC(N)=O)CSCC(=O)N[C@@H](Cc2ccc(O)cc2)C(=O)N(C)[C@@H](C)C(=O)N[C@@H](CC(=O)O)C(=O)N2CCC[C@H]2C(=O)N[C@@H](Cc2cnc[nH]2)C(=O)N[C@@H](CCC(=O)O)C(=O)N2C[C@H](O)C[C@H]2C(=O)N[C@@H](Cc2c[nH]c3ccccc23)C(=O)N[C@@H](CO)C(=O)N[C@@H](Cc2cn(CC(=O)O)c3ccccc23)C(=O)N1C [Example 6276] ({CH2CO}-Y[NMeA]DPHE[Hyp]WS[Trp(1-CH2COOH)][NMeNle][NMeNle]LCG-NH2; thioether N-14) showed an IC50 of 1 to 9.9 nM.
CCCC[C@H]1C(=O)N(C)[C@@H](CCCC)C(=O)N[C@@H](CC(C)C)C(=O)N[C@H](C(=O)NCC(N)=O)CSCC(=O)N[C@@H](Cc2ccc(O)cc2)C(=O)N(C)[C@@H](C)C(=O)N[C@@H](CC(=O)O)C(=O)N2CCC[C@H]2C(=O)N[C@@H](CN)C(=O)N[C@@H](CC(C)C)C(=O)N2CCC[C@H]2C(=O)N[C@@H](Cc2c[nH]c3ccccc23)C(=O)N[C@@H](CCN)C(=O)N[C@@H](Cc2cn(CC(=O)O)c3ccccc23)C(=O)N1C [Example 6283] ({CH2CO}-Y[NMeA]DP[Dap]LPW[Dab][Trp(1-CH2COOH)][NMeNle][NMeNle]LCG-NH2; thioether N-14) gave an IC50 of 1 to 9.9 nM.
With CCCC[C@H]1C(=O)N(C)[C@@H](CCCC)C(=O)N[C@@H](CCC(=O)O)C(=O)N[C@H](C(=O)NCC(N)=O)CSCC(=O)N[C@@H](Cc2ccc(O)cc2)C(=O)N(C)[C@@H](C)C(=O)N[C@@H](CC(N)=O)C(=O)N2CCCC2C(=O)N[C@@H](Cc2cnc[nH]2)C(=O)N[C@@H](CCC(N)=O)C(=O)N2C[C@H](O)C[C@H]2C(=O)N[C@@H](Cc2c[nH]c3ccccc23)C(=O)N[C@@H](CCN)C(=O)N[C@@H](Cc2cn(CC(=O)O)c3ccccc23)C(=O)N1C (stereo partly drawn) [Example 6288] ({CH2CO}-Y[NMeA]N[ξP]HQ[Hyp]W[Dab][Trp(1-CH2COOH)][NMeNle][NMeNle]ECG-NH2; thioether N-14) the IC50 was 1 to 9.9 nM.
In the case of CCCC[C@H]1C(=O)N(C)[C@@H](CCCC)C(=O)N[C@@H](CCC(=O)O)C(=O)N[C@H](C(=O)NCC(N)=O)CSCC(=O)N[C@@H](Cc2ccc(O)cc2)C(=O)N(C)[C@@H](C)C(=O)N[C@@H](CC(=O)O)C(=O)N2CCC[C@H]2C(=O)N[C@@H](CN)C(=O)N[C@@H](CCC(N)=O)C(=O)N2C[C@H](O)C[C@H]2C(=O)N[C@@H](Cc2c[nH]c3ccccc23)C(=O)N[C@@H](CO)C(=O)N[C@@H](Cc2cn(CC(=O)O)c3ccccc23)C(=O)N1C [Example 6289] ({CH2CO}-Y[NMeA]DP[Dap]Q[Hyp]WS[Trp(1-CH2COOH)][NMeNle][NMeNle]ECG-NH2; thioether N-14), the IC50 is reported as 1 to 9.9 nM.
For CCCC[C@H]1C(=O)N(C)[C@@H](CCCC)C(=O)N[C@@H](CCN)C(=O)N[C@H](C(=O)NCC(N)=O)CSCC(=O)N[C@@H](Cc2ccc(O)cc2)C(=O)N(C)[C@@H](C)C(=O)N[C@@H](CC(N)=O)C(=O)N2CCC[C@H]2C(=O)N[C@@H](Cc2cnc[nH]2)C(=O)N[C@@H](CCC(N)=O)C(=O)N2C[C@H](O)C[C@H]2C(=O)N[C@@H](Cc2c[nH]c3ccccc23)C(=O)N[C@@H](CCN)C(=O)N[C@@H](Cc2cn(CC(=O)O)c3ccccc23)C(=O)N1C [Example 6293] ({CH2CO}-Y[NMeA]NPHQ[Hyp]W[Dab][Trp(1-CH2COOH)][NMeNle][NMeNle][Dab]CG-NH2; thioether N-14), the IC50 was 1 to 9.9 nM.
CCCC[C@H]1C(=O)N(C)[C@@H](CCCC)C(=O)N[C@@H](CC(C)C)C(=O)N[C@H](C(=O)NCC(N)=O)CSCC(=O)N[C@@H](Cc2ccc(O)cc2)C(=O)N(C)[C@@H](C)C(=O)N[C@@H](CC(N)=O)C(=O)N2CCC[C@H]2C(=O)N[C@@H](CN)C(=O)N[C@@H](CC(C)C)C(=O)N2C[C@H](O)C[C@H]2C(=O)N[C@@H](Cc2c[nH]c3ccccc23)C(=O)N[C@@H](CCCCN)C(=O)N[C@@H](Cc2cn(CC(=O)O)c3ccccc23)C(=O)N1C [Example 6296] ({CH2CO}-Y[NMeA]NP[Dap]L[Hyp]WK[Trp(1-CH2COOH)][NMeNle][NMeNle]LCG-NH2; thioether N-14) showed an IC50 of 1 to 9.9 nM.
CCCC[C@H]1C(=O)N(C)[C@@H](CCCC)C(=O)N[C@@H](CCCCN)C(=O)N[C@H](C(=O)NCC(N)=O)CSCC(=O)N[C@@H](Cc2ccc(O)cc2)C(=O)N(C)[C@@H](C)C(=O)N[C@@H](CC(N)=O)C(=O)N2CCC[C@H]2C(=O)N[C@@H](Cc2cnc[nH]2)C(=O)N[C@@H](CCC(=O)O)C(=O)N2C[C@H](O)C[C@H]2C(=O)N[C@@H](Cc2c[nH]c3ccccc23)C(=O)N[C@@H](CO)C(=O)N[C@@H](Cc2cn(CC(=O)O)c3ccccc23)C(=O)N1C [Example 6297] ({CH2CO}-Y[NMeA]NPHE[Hyp]WS[Trp(1-CH2COOH)][NMeNle][NMeNle]KCG-NH2; thioether N-14) gave an IC50 of 1 to 9.9 nM.
With CCCC[C@H]1C(=O)N(C)[C@@H](CCCC)C(=O)N[C@@H](CN)C(=O)N[C@H](C(=O)NCC(N)=O)CSCC(=O)N[C@@H](Cc2ccc(O)cc2)C(=O)N(C)[C@@H](C)C(=O)N[C@@H](CC(N)=O)C(=O)N2CCC[C@H]2C(=O)N[C@@H](CN)C(=O)N[C@@H](CCC(=O)O)C(=O)N2C[C@H](O)C[C@H]2C(=O)N[C@@H](Cc2c[nH]c3ccccc23)C(=O)N[C@@H](CCN)C(=O)N[C@@H](Cc2cn(CC(=O)O)c3ccccc23)C(=O)N1C [Example 6301] ({CH2CO}-Y[NMeA]NP[Dap]E[Hyp]W[Dab][Trp(1-CH2COOH)][NMeNle][NMeNle][Dap]CG-NH2; thioether N-14) the IC50 was 1 to 9.9 nM.
Work on CCCC[C@H]1C(=O)N(C)[C@@H](CCCC)C(=O)N[C@@H](CN)C(=O)N[C@H](C(=O)NCC(N)=O)CSCC(=O)N[C@@H](Cc2ccc(O)cc2)C(=O)N(C)[C@@H](C)C(=O)N[C@@H](CC(N)=O)C(=O)N2CCC[C@H]2C(=O)N[C@@H](CN)C(=O)N[C@@H](CC(C)C)C(=O)N2C[C@H](O)C[C@H]2C(=O)N[C@@H](Cc2c[nH]c3ccccc23)C(=O)N[C@@H](CCN)C(=O)N[C@@H](Cc2cn(CC(=O)O)c3ccccc23)C(=O)N1C [Example 6303] ({CH2CO}-Y[NMeA]NP[Dap]L[Hyp]W[Dab][Trp(1-CH2COOH)][NMeNle][NMeNle][Dap]CG-NH2; thioether N-14) yielded an IC50 of 1 to 9.9 nM.
CCCC[C@H]1C(=O)N(C)[C@@H](CCCC)C(=O)N[C@@H](CC(C)C)C(=O)N[C@H](C(N)=O)CSCC(=O)N[C@@H](Cc2ccc(O)cc2)C(=O)N(C)[C@@H](C)C(=O)N[C@@H](CC(N)=O)C(=O)N2CCC[C@H]2C(=O)N[C@@H](CN)C(=O)N[C@@H](CC(C)C)C(=O)N2C[C@H](O)C[C@H]2C(=O)N[C@@H](Cc2c[nH]c3ccccc23)C(=O)N[C@@H](CCN)C(=O)N[C@@H](Cc2cn(CC(=O)O)c3ccccc23)C(=O)N1C [Example 6310] ({CH2CO}-Y[NMeA]NP[Dap]L[Hyp]W[Dab][Trp(1-CH2COOH)][NMeNle][NMeNle]LC-NH2; thioether N-14) was tested, and the IC50 was 10 to 99.9 nM.
Work on CCCC[C@H]1C(=O)N(C)[C@@H](CCCC)C(=O)N[C@@H](CCC(=O)O)C(=O)N[C@H](C(=O)NCC(N)=O)CSCC(=O)N[C@@H](Cc2ccc(O)cc2)C(=O)N(C)[C@@H](C)C(=O)N[C@@H](CC(N)=O)C(=O)N2CCC[C@H]2C(=O)N[C@@H](Cc2cnc[nH]2)C(=O)N[C@@H](CCC(N)=O)C(=O)N2C[C@H](O)C[C@H]2C(=O)N[C@@H](Cc2c[nH]c3ccccc23)C(=O)N[C@@H](CCCCN)C(=O)N[C@@H](Cc2cn(CC(=O)O)c3ccccc23)C(=O)N1C [Example 6324] ({CH2CO}-Y[NMeA]NPHQ[Hyp]WK[Trp(1-CH2COOH)][NMeNle][NMeNle]ECG-NH2; thioether N-14) yielded an IC50 of 1 to 9.9 nM.
